Here are results for six compounds from patent US11440880B2, “Thalidomide analogs and methods of use” (The USA, as represented by the Secretary, Department of …, priority 2015, dated 2022).

One series deals with 59 cancer cell lines. As to the kind of experiment: One-dose anti-cancer screening in 59 cancer cell lines. The note with it: 1×10^−5 M; with the exception of leukemic cell lines. Format: cell-based. From the text:
As well as being immunomodulatory and anti-angiogenic, lenalidomide and pomalidomide are directly cytotoxic to cancer cells. […] Compounds 29 and 86 were screened at a concentration of 1×10^−5 M (FIGS. 11 and 12, respectively). Calculated values from 0-100 indicate growth inhibition relative to a no-drug control, and values less than 0 indicate lethality, relative to the number of cells at time zero. A value of 100 means no growth inhibition. A value of 40 means 60% growth inhibition. A value of 0 means no net growth over the course of the experiment. A value of −40 means 40% lethality. A value of −100 means all cells are dead.

A short description of series [1]: Maximum tolerated dose in SCID mice. The note with it: 3× per week; for deaths / drug-related toxicity / weight loss: 5 mg/kg and 10 mg/kg IV; for MTD: SCID, mouse, in vivo, IV, read-out: selected dose from the maximum tolerated dose study. Format: in vivo. From the text:
(§1) Compounds 29 and 86 were selected for in vivo efficacy studies of human prostate cancer. Mice positive for the severe combined immune deficieny (SCID) spontaneous mutation Prkdc^scid are deficient in functional T cells and B cells, have reduced levels of gamma globulins and lymphopenia (low white blood cell count). Due to their comprised immune system, SCID mice are amenable to xenogeneic grafts. Before starting the efficacy study, a maximum tolerated dose was established for each compound. Compound administration was by tail vein injection (IV) with a 27-gauge needle. A volume of 100 uL per 25 g of body weight was injected for each compound and dose. Compounds 29 and 86 were formulated in 12% DMSO and 88% TPGS (tocopherol polyethylene glycol succinate) in distilled sterile water. This formulation was well tolerated in vehicle control mice. The maximum tolerated dose was defined as the highest dose at which 100% of animals could tolerate treatment with mild or no toxicity for a minimum of one week of treatment. Initially, each compound was administered 3× per week to five mice per group, at 5 and 10 mg/kg. Each dose level was monitored for at least one week. […] Animals were weighed daily during the treatment courses. […] The selected dose for further experimentation was therefore 10 mg/kg.

In series [2] the test system is human saphenous vein sections (microvessel outgrowth). Nature of the series: Human saphenous vein assay of angiogenesis (ex vivo). Format: cell-based. The note with it: for inhibition of vessel outgrowth: in words; for vessel outgrowth: 10 days of incubation. As to the method: The saphenous vein was cleaned of subcutaneous tissue and embedded in Matrigel® matrix as previously described. After 10 days of incubation, the transverse sections of the veins were imaged. The outgrowth between the vehicle and no treatment (media) control was equivalent (106.65%±20.14, n=2 and 103.35%±4.06, n=2 respectively; FIGS. 13A and 13B).

In series [3] the test system is PC3 cells (xenografted tumors). Nature of the series: PC3 xenograft efficacy in SCID mice. Format: in vivo. The note with it: 10 mg/kg; for tumor burden: day 0 to day 24.
Description: as §1
When the tumors of SCID mice xenografted with PC3 cells were palpable, mice were dosed with 10 mg/kg of compound 29 or compound 86, or given the vehicle alone. From day 0 to day 24, the tumor sizes in vehicle-treated animals increased by 301.33% (FIG. 15, tumor size=401.33%±35.98%).

Series [4] in a line: Precipitation of the IV formulation. Format: physicochemical. The note with it: 20 mg/kg; 12% DMSO and 88% TPGS in distilled sterile water.
Description: as §1

Series [5] concerns nitrite levels in the culture media. As to the kind of experiment: Nitrite level (Griess Reagent System) in LPS-challenged RAW 264.7 cells. Format: cell-based, mouse. Details: key: NS=not significant; a “+” sign=anti-inflammatory or increased cell numbers; a “−” sign=cell toxicity or pro-inflammatory. The note with it: LPS 30 or 60 ng/mL, 24 h. An outline of the steps: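 RAW 264.7 cells pretreated 1 h with compound in DMSO vehicle, then challenged with LPS (30 or 60 ng/mL) for 24 h at 37° C. Conditioned-media nitrite by Griess (520 nm, sodium nitrite standard curve, 1.5 μM cutoff) in μM; mouse TNF-α by ELISA as pg/ml or % change from control.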

SMILES strings stand for the structures.

For the compound `O=C1c2ccccc2CN1C12CC3CC(CC(O)(C3)C1)C2` [Compound 86, 2,3-Dihydro-2-(tricyclo[3.3.1.1^3,7]dec-1-hydroxy-3-yl)-1H-isoindol-1-one], the “activity on cell growth / cytotoxicity” value in the series with 59 cancer cell lines is “very little activity”. Moreover, in series [1], the “deaths / drug-related toxicity” value was “no animals died or needed to be euthanized due to drug-related toxicity”. Moreover, the weight loss entry in series [1] is “no significant weight loss”. Also, the MTD in series [1] came to 10 mg/kg. In addition, the “inhibition of vessel outgrowth” value is “vastly reduced outgrowth” in series [2] (10 μM (FIGS. 13D, 13E)) and “inhibit outgrowth at all concentrations” in series [2] (all concentrations). Moreover, in series [3], the tumor burden result is reported as “No reduction in tumor burden”. Further, in series [3] (p=0.07), the “tumor size versus vehicle treated mice” value is listed as “trend to separate”. The “behaviour of the compound in the dosing solution” value in series [4] is reported as “precipitate in the solution”. In addition, the Nitrite result in series [5] (1 μM), in series [5] (10 μM) and in series [5] (30 μM) was “NS” throughout.

Turning to `CC(N1Cc2c(N)cccc2C1=O)C12CC3CC(CC(C3)C1)C2` (stereo not drawn) [Compound 81], the Nitrite result in series [5] (1 μM) was “NS”; in series [5] (10 μM) it was “NS”; in series [5] (30 μM), “+”.

`O=C1CCC(N2C(=O)c3cccc([N+](=O)[O-])c3C2=O)C(=O)N1` (stereo not drawn) [Compound 5]: the Nitrite entry in series [5] (1 μM), in series [5] (10 μM), in series [5] (30 μM), in series [5] (60 μM) and in series [5] (100 μM) was “NS” throughout.

Turning to `Nc1cccc2c1CN(C1CCC(=O)NC1=O)C2=S` (stereo not drawn) [Compound 29], the “activity on cell growth / cytotoxicity” value in the series with 59 cancer cell lines was “very little activity”. The “deaths / drug-related toxicity” value in series [1] is “no animals died or needed to be euthanized due to drug-related toxicity”. Also, the weight loss result in series [1] was “no significant weight loss”. Moreover, in series [1], the MTD came to 10 mg/kg. The vessel outgrowth in series [2] (5 μM) was 155.12%±23.69; in series [2] (10 μM), 168.06%±14.87; in series [2] (50 μM) it was 102.38%±16.78; in series [2] (100 μM) it was 62.53%±13.69. Moreover, the “inhibition of vessel outgrowth” value in series [2] (10 μM (FIGS. 13D, 13E)) was “no inhibition”. The tumor burden entry in series [3] is listed as “No reduction in tumor burden”. Besides, the “behaviour of the compound in the dosing solution” value in series [4] is reported as “precipitate in the solution”.

With `Nc1cccc2c1CN(C13CC4CC(CC(C4)C1)C3)C2=O` [Compound 77, 2,3-Dihydro-4-amino-2-(tricyclo[3.3.1.1^3,7]dec-1-yl)-1H-isoindol-1-one], the Nitrite result in series [5] (1 μM), in series [5] (10 μM) and in series [5] (30 μM) was “NS” in each case.

As to `O=C1NC(=S)CCC1N1C(=O)c2cccc([N+](=O)[O-])c2C1=O` (stereo not drawn) [Compound 7, 2-(2-Oxo-6-thioxo-3-piperidinyl)-4-nitro-1H-isoindole-1,3(2H)-dione], the Nitrite result in series [5] (1 μM) was “NS”; in series [5] (10 μM), “NS”; in series [5] (30 μM) it was “+”; in series [5] (60 μM) it was “+”; in series [5] (100 μM), “+”.
